Patent US20160279095A1, “USE OF NUTRITIONAL COMPOSITIONS INCLUDING NATURAL VITAMIN E, AND POLYUNSATURATED FATTY ACID” (ABBOTT LABORATORIES, priority 2013, published 2016)

System: Primary cortical neurons
Experiment: DHA peroxidation in primary cortical neurons, MDA levels measured by LC-MS
Type: cell-based, Sprague-Dawley rat
Details: for MDA concentration (DHA peroxidation): by LCMS/MS
Method: Primary cortical neurons from postnatal day 3-5 (P3-P5) Sprague-Dawley rat pup's brain were pretreated with/without natural vitamin E in the form of RRR-a-tocopherol (15 μM or 45 μM), and/or lutein (0.32 nM or 0.5 nM) individually and in combination for 12 hours. (Note that μM is used to refer to a micromolar concentration and nM is used to refer to a nanomolar concentration and concentrations refer to those reached in the test tubes containing the cortical neurons.) After 12 hours DHA (90 μM) was added for an additional 12 hours. After 12 hours samples were washed in PS and neurons were lysed. Peroxides generated from DHA and incorporated into the neuronal cell membrane were assessed by measuring the MDA levels using liquid chromatography-mass spectometry (LC-MS) method.

## CC/C=C\C/C=C\C/C=C\C/C=C\C/C=C\C/C=C\CCC(=O)O [DHA, docosahexaenoic acid]
DHA 90 μM for 12 hours, without either RRR alpha tocopherol or lutein
  MDA concentration (DHA peroxidation): about 110

## Cc1c(C)c2c(c(C)c1O)CC[C@@](C)(CCC[C@H](C)CCC[C@H](C)CCCC(C)C)O2 [RRR alpha tocopherol, RRR-alpha tocopherol]
15 μM RRR alpha tocopherol pretreatment 12 hours, then DHA 90 μM 12 hours
  MDA concentration (DHA peroxidation): about 75%
45 μM RRR alpha tocopherol pretreatment 12 hours, then DHA 90 μM 12 hours, p<0.001
  MDA concentration (DHA peroxidation): about 57%

## CC1=C[C@H](O)CC(C)(C)[C@H]1/C=C/C(C)=C/C=C/C(C)=C/C=C/C=C(C)/C=C/C=C(C)/C=C/C1=C(C)C[C@@H](O)CC1(C)C [lutein]
Lutein alone, without RRR alpha tocopherol, then DHA 90 μM
  effect on retarding DHA peroxidation: essentially no effect
